The values below come from US12252524B2, “GIP/GLP1 co-agonist compounds” (Eli Lilly and Company, priority 2018, dated 2025).

Molecules are shown by their SMILES. Numbered stars: 1 amine (or outer) side, 2 acyl side, 3 side chain; on linkers, the order of the positions; unused ones are H or OH. Square brackets hold non-standard residues; d marks the D form. Side chains are listed from the residue outwards. Peptide text beside a SMILES is read from it. * marks the point of attachment. C20 diacid = O=C(O)CCCCCCCCCCCCCCCCCCC(=O)*; γGlu = O=C(O)[C@H](CCC(=O)[*:2])N[*:1]; αMeF = C[C@](N)(Cc1ccccc1)C(=O)O; αMeL = CC(C)C[C@](C)(N)C(=O)O; AEEA = NCCOCCOCC(=O)O; Aib = CC(C)(N)C(=O)O

For assay [1], the target named is human GLP-1 receptor (GLP-1R) (Homo sapiens, UniProt P43220). Kind of assay: cAMP pharmacological functional assay in presence of casein, hGLP-1R. Type of assay: cell-based. The following applies: HEK293 cells expressing hGLP-1R, 0.1% Casein, geometric mean; read-out: hGLP1R cAMP Rel EC50 nM (SEM, n).
Sequence of human GLP-1 receptor (GLP-1R) (P43220 24-463): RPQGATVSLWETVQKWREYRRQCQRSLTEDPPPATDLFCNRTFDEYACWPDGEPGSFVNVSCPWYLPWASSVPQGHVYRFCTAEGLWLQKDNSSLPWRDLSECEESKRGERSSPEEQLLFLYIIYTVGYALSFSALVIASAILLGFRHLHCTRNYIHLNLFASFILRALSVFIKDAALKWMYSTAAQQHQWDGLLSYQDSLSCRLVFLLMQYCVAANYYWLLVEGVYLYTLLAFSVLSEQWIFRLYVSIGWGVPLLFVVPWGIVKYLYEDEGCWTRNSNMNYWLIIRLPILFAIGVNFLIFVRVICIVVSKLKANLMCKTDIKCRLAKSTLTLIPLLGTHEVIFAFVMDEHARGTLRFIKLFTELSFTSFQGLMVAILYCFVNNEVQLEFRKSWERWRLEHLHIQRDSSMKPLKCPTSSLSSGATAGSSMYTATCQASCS
For assay [2], the target named is T1, gastric inhibitory peptide receptor (GIPR) (Homo sapiens, UniProt P48546).
T1 sequence (P48546 22-466): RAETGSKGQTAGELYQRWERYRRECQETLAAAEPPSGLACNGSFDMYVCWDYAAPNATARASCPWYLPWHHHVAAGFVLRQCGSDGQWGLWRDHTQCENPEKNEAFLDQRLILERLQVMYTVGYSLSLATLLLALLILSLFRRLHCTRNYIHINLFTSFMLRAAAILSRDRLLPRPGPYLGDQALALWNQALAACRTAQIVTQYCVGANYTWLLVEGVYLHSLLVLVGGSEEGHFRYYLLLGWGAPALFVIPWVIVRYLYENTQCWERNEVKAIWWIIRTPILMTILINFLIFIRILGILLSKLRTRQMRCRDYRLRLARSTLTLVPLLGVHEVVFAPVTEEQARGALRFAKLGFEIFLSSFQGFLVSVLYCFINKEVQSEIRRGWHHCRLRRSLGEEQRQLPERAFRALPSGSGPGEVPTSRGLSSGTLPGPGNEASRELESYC
Kind of assay: cAMP pharmacological functional assay in presence of casein, hGIPR. The following applies: HEK293 cells expressing hGIPR, 0.1% Casein, geometric mean; read-out: hGIPR cAMP Rel EC50 nM (SEM, n). Format: cell-based.

One may read the EC50 as the concentration needed to bring the measured effect to its halfway point. Take `CC[C@H](C)[C@H](NC(=O)[C@H](CCCCN)NC(=O)[C@H](CC(=O)O)NC(=O)[C@H](CC(C)C)NC(=O)[C@](C)(CC(C)C)NC(=O)[C@@H](NC(=O)[C@H](CO)NC(=O)[C@H](CCCCNC(=O)COCCOCCNC(=O)COCCOCCNC(=O)CC[C@H](NC(=O)CCCCCCCCCCCCCCCCCCC(=O)O)C(=O)O)NC(=O)[C@H](CC(=O)O)NC(=O)[C@H](CO)NC(=O)[C@@H](NC(=O)[C@H](Cc1ccccc1)NC(=O)[C@@H](NC(=O)CNC(=O)[C@H](CCC(=O)O)NC(=O)C(C)(C)NC(=O)[C@@H](N)Cc1ccc(O)cc1)[C@@H](C)O)[C@@H](C)O)[C@@H](C)CC)C(=O)N[C@@H](C)C(=O)N[C@@H](CCC(N)=O)C(=O)NC(C)(C)C(=O)N[C@@H](C)C(=O)N[C@@H](Cc1ccccc1)C(=O)N[C@H](C(=O)N[C@@H](CCC(=O)O)C(=O)N[C@@H](Cc1ccc(O)cc1)C(=O)N[C@@H](CC(C)C)C(=O)N[C@H](C(=O)N[C@@H](CCC(=O)O)C(=O)NCC(=O)NCC(N)=O)[C@@H](C)CC)[C@@H](C)CC` [Example 96] (H-Y[Aib]EGTFTSDK([AEEA-AEEA-γGlu-C20 diacid])SI[αMeL]LDKIAQ[Aib]AFIEYLIEGG-NH2): the EC50 in assay [1] came out at 0.59 nM; in assay [2], 0.712 nM.

With `CC[C@H](C)[C@H](NC(=O)[C@H](CCCCN)NC(=O)[C@H](CC(=O)O)NC(=O)[C@H](CC(C)C)NC(=O)[C@](C)(CC(C)C)NC(=O)[C@@H](NC(=O)[C@H](CO)NC(=O)[C@H](Cc1ccc(O)cc1)NC(=O)[C@H](CC(=O)O)NC(=O)[C@H](CO)NC(=O)[C@@H](NC(=O)[C@H](Cc1ccccc1)NC(=O)[C@@H](NC(=O)CNC(=O)[C@H](CCC(=O)O)NC(=O)C(C)(C)NC(=O)[C@@H](N)Cc1ccc(O)cc1)[C@@H](C)O)[C@@H](C)O)[C@@H](C)CC)C(=O)N[C@@H](C)C(=O)N[C@@H](CCC(N)=O)C(=O)NC(C)(C)C(=O)N[C@@H](C)C(=O)N[C@@H](Cc1ccccc1)C(=O)N[C@H](C(=O)N[C@@H](CCC(=O)O)C(=O)N[C@@H](Cc1ccc(O)cc1)C(=O)N[C@@H](CC(C)C)C(=O)N[C@H](C(=O)N[C@@H](CCCCNC(=O)COCCOCCNC(=O)COCCOCCNC(=O)CC[C@H](NC(=O)CCCCCCCCCCCCCCCCCCC(=O)O)C(=O)O)C(=O)NCC(=O)NCC(N)=O)[C@@H](C)CC)[C@@H](C)CC` [Example 97] (H-Y[Aib]EGTFTSDYSI[αMeL]LDKIAQ[Aib]AFIEYLIK([AEEA-AEEA-γGlu-C20 diacid])GG-NH2), the concentration for a half-maximal effect (EC50) amounted to 2.18 nM in assay [1] and 1.85 nM in assay [2].

Consider `CC[C@H](C)[C@H](NC(=O)[C@H](CC(C)C)NC(=O)[C@H](Cc1ccc(O)cc1)NC(=O)[C@H](CCC(=O)O)NC(=O)[C@@H](NC(=O)[C@H](Cc1ccccc1)NC(=O)[C@H](C)NC(=O)C(C)(C)NC(=O)[C@H](CCC(N)=O)NC(=O)[C@H](C)NC(=O)[C@H](CCCCNC(=O)COCCOCCNC(=O)COCCOCCNC(=O)CC[C@H](NC(=O)CCCCCCCCCCCCCCCCCCC(=O)O)C(=O)O)NC(=O)[C@H](CCCCN)NC(=O)[C@H](CC(=O)O)NC(=O)[C@H](CC(C)C)NC(=O)[C@H](CC(C)C)NC(=O)[C@@H](NC(=O)[C@H](CO)NC(=O)[C@H](Cc1ccc(O)cc1)NC(=O)[C@H](CC(=O)O)NC(=O)[C@H](CO)NC(=O)[C@@H](NC(=O)[C@](C)(Cc1ccccc1)NC(=O)[C@@H](NC(=O)CNC(=O)[C@H](CCC(=O)O)NC(=O)C(C)(C)NC(=O)[C@@H](N)Cc1ccc(O)cc1)[C@@H](C)O)[C@@H](C)O)[C@@H](C)CC)[C@@H](C)CC)C(=O)N[C@@H](CCC(=O)O)C(=O)NCC(=O)NCC(N)=O` [Example 98] (H-Y[Aib]EGT[αMeF]TSDYSILLDKK([AEEA-AEEA-γGlu-C20 diacid])AQ[Aib]AFIEYLIEGG-NH2), for which the results for the half-maximal effective concentration (EC50) in assay [1] and in assay [2] were 0.157 nM and 0.0718 nM, respectively.
